# Reference: patent publication US11083709B2, “Compounds, compositions, and methods of increasing CFTR activity” (Proteostasis Therapeutics, Inc., priority 2015, dated 2021)
# Structures can show the parent of a compound that is named as a salt.
# Biological target: T1, ΔF508-CFTR (Homo sapiens, UniProt P13569, DEL508-508)
# T1 construct: primary lung epithelial cells (hBEs) homozygous for the Cystic Fibrosis-causing ΔF508 mutation; endogenous in cells; host or cells: primary lung epithelial cells (hBEs) homozygous for ΔF508
# T1 sequence (P13569 with tags, fused parts or gaps DEL508-508): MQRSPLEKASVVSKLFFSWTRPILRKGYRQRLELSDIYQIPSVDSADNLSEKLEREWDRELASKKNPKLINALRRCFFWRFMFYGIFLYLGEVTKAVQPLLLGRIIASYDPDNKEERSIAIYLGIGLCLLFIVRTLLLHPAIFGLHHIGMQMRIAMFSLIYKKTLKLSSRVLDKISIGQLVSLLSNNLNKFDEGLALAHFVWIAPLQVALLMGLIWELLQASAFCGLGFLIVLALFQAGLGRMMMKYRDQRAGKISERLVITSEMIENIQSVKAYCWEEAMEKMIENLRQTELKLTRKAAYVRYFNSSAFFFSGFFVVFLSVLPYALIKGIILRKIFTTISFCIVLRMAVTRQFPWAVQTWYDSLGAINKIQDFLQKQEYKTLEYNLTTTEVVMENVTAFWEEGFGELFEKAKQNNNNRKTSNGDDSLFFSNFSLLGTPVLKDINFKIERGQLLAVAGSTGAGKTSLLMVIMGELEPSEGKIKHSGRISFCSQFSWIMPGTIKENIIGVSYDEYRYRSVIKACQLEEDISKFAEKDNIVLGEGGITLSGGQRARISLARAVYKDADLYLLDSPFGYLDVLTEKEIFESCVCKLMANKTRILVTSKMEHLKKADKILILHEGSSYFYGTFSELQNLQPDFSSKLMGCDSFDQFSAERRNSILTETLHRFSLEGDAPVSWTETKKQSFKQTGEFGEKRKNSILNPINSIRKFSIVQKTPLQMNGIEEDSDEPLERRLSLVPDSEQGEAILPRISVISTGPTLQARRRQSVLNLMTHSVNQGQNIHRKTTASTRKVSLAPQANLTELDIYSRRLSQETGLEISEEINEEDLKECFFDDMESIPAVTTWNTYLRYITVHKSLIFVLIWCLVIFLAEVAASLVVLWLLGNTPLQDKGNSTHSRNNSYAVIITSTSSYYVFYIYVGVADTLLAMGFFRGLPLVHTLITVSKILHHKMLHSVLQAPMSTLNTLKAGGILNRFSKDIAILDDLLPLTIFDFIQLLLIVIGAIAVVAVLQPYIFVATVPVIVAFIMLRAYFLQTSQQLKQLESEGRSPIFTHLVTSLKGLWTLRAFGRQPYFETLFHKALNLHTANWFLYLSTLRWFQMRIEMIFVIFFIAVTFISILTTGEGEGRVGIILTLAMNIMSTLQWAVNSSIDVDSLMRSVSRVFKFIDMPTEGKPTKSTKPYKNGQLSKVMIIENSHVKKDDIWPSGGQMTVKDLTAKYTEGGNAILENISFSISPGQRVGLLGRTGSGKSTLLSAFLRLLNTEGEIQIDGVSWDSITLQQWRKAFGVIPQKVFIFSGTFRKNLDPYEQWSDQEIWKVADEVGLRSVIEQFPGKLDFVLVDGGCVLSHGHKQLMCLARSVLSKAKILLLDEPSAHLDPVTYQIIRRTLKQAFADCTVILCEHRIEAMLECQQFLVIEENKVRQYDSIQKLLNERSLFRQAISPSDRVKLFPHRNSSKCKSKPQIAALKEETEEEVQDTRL
# Assay: hBE equivalent current (Ieq) assay, primary lung epithelial cells homozygous for ΔF508
# Format: cell-based
# Details: compound alone run at 10 uM, relative to VX-809 at 1 uM; 24 h treatment
# Procedure: Primary lung epithelial cells homozygous for the Cystic Fibrosis-causing ΔF508 mutation were differentiated for a minimum of 4 weeks in an air-liquid interface on Costar 24 well HTS filter plates prior to the equivalent current (Ieq) measurements. Cells were apically mucus-washed for 30 minutes 24h prior to treatment with compounds. The basolateral media was removed and replaced with media containing the compound of interest diluted to its final concentration from DMSO stocks. Treated cells were incubated at 37° C. and 5% CO2 for 24 hours. At the end of the treatment period, the media was changed to the Ieq experimental solution for 30 minutes before the experiment and plates are maintained in a CO2-free incubator during this period. The plates containing the cells were then placed in pre-warmed heating blocks at 36° C.±0.5 for 15 minutes before measurements are taken. The transepithelial voltage (VT) and conductance (GT) were measured using a custom 24 channel current clamp (TECC-24) with 24 well electrode manifold. The Ieq assay measurements were made following additions with standardized time periods: • 1. The baseline VT and GT values were measured for approximately 20 minutes. • 2. Benzamil was added to block ENaC for 15 minutes. • 3. Forskolin plus VX-770 (ivacaftor) were added to maximally activate ΔF508-CFTR for 27 minutes. • 4. Bumetanide was added to inhibit the NaK2Cl cotransporter and shut-off secretion of chloride.
# The activity data captured was the area under the curve (AUC) for the traces of the equivalent chloride current. The AUC was collected from the time of the forskolin/VX-770 addition until the inhibition by bumetanide addition. Correction in response to compound treatment was scored as the increase in the AUC for compound-treated samples over that of vehicle-treated samples.
# The results are shown below in Table 2. ++ indicates activity ≥25% run at 10 uM of VX-809 at 1 uM, + indicates activity 10 to <25% run at 10 uM of VX-809 at 1 uM, ** indicates activity ≥200% of VX-809 (1 uM) with compound at 10 uM and VX-809 at 1 uM; * indicates activity 100-200% of VX-809 (1 uM) with compound at 10 uM and VX-809 at 1 uM. ^## indicates activity ≥200% of VX-809 (3 uM) with compound at 10 uM and VX-809 at 3 uM; ^# indicates activity 100-200% of VX-809 (3 uM) with compound at 10 uM and VX-809 at 3 uM.
row,Structure (SMILES),leq: activity relative to VX-809 (AUC of equivalent chloride current)
1,"COCCNC(=O)c1cc(-c2ccccc2)no1 [Example 1, N-(2-methoxyethyl)-3-phenylisoxazole-5-carboxamide]",++ (++ indicates activity ≥25% run at 10 uM of VX-809 at 1 uM)
2,"O=C(NCC1CCCO1)c1cc(-c2ccccc2)no1 (centres unmarked) [Example 2, 3-phenyl-N-((tetrahydrofuran-2-yl)methyl)isoxazole-5-carboxamide]",++ (++ indicates activity ≥25% run at 10 uM of VX-809 at 1 uM)
3,"O=C(NCCN1CCOCC1)c1cc(-c2ccccc2)no1 [Example 3, N-(2-morpholinoethyl)-3-phenylisoxazole-5-carboxamide]",++ (++ indicates activity ≥25% run at 10 uM of VX-809 at 1 uM)
4,"O=C(NCCCn1ccnc1)c1cc(-c2ccccc2)no1 [Example 4, N-(3-(1H-imidazol-1-yl)propyl)-3-phenylisoxazole-5-carboxamide]",+ (+ indicates activity 10 to <25% run at 10 uM of VX-809 at 1 uM)
5,"Cn1nccc1CCCNC(=O)c1cc(-c2ccccc2)no1 [Example 7, N-(3-(1-methyl-1H-pyrazol-5-yl)propyl)-3-phenylisoxazole-5-carboxamide]",++ (++ indicates activity ≥25% run at 10 uM of VX-809 at 1 uM)
6,"COCCNC(=O)c1cc(-c2ccccc2)co1 [Example 8, N-(2-methoxyethyl)-4-phenylfuran-2-carboxamide]",+ (+ indicates activity 10 to <25% run at 10 uM of VX-809 at 1 uM)
7,"O=C(NCC1CCCO1)c1cc(-c2ccccc2)co1 (centres unmarked) [Example 9, 4-phenyl-N-((tetrahydrofuran-2-yl)methyl)furan-2-carboxamide]",++ (++ indicates activity ≥25% run at 10 uM of VX-809 at 1 uM)
8,"O=C(NCCN1CCOCC1)c1cc(-c2ccccc2)co1 [Example 10, N-(2-morpholinoethyl)-4-phenylfuran-2-carboxamide]",+ (+ indicates activity 10 to <25% run at 10 uM of VX-809 at 1 uM)
9,"O=C(NCCCn1ccnc1)c1cc(-c2ccccc2)co1 [Example 11, N-(3-(1H-imidazol-1-yl)propyl)-4-phenylfuran-2-carboxamide]",++ (++ indicates activity ≥25% run at 10 uM of VX-809 at 1 uM)
10,"O=C(NC1CC1)c1cc(-c2ccccc2)co1 [Example 12, N-cyclopropyl-4-phenylfuran-2-carboxamide]",++ (++ indicates activity ≥25% run at 10 uM of VX-809 at 1 uM)

# Same assay, conditions: compound at 10 uM and VX-809 at 1 uM, relative to VX-809 (1 uM); 24 h treatment
row,Structure (SMILES),"leq: activity of compound with VX-809, % of VX-809 (AUC of equivalent chloride current)"
1,"CC(OC1CCC1)c1nnc([C@H]2C[C@H](NC(=O)c3cc(-c4ccccc4)no3)C2)o1 (relative stereo) [Example 17, N-(trans-3-(5-(1-cyclobutoxyethyl)-1,3,4-oxadiazol-2-yl)cyclobutyl)-3-phenylisoxazole-5-carboxamide]",* (* indicates activity 100-200% of VX-809 (1 uM) with compound at 10 uM and VX-809 at 1 uM)
2,"CC(OCC(F)(F)F)c1nnc(C2CC(NC(=O)c3cc(-c4ccccc4)no3)C2)o1 (single isomer, unassigned) [Example 15]",* (* indicates activity 100-200% of VX-809 (1 uM) with compound at 10 uM and VX-809 at 1 uM)
3,"Cn1nccc1CCCNC(=O)c1cc(-c2ccccc2)no1 [Example 7, N-(3-(1-methyl-1H-pyrazol-5-yl)propyl)-3-phenylisoxazole-5-carboxamide]",* (* indicates activity 100-200% of VX-809 (1 uM) with compound at 10 uM and VX-809 at 1 uM)
4,"O=C(NC1CC1)c1cc(-c2ccccc2)co1 [Example 12, N-cyclopropyl-4-phenylfuran-2-carboxamide]",* (* indicates activity 100-200% of VX-809 (1 uM) with compound at 10 uM and VX-809 at 1 uM)
5,"CO[C@H](C)c1nnc([C@H]2C[C@H](NC(=O)c3cc(-c4ccccc4)no3)C2)o1 [Example 14, N-(trans-3-(5-((R)-1-methoxyethyl)-1,3,4-oxadiazol-2-yl)cyclobutyl)-3-phenylisoxazole-5-carboxamide]",* (* indicates activity 100-200% of VX-809 (1 uM) with compound at 10 uM and VX-809 at 1 uM)
6,"C[C@@H](OCC1CN(C)C1)c1nnc([C@H]2C[C@H](NC(=O)c3cc(-c4ccccc4)no3)C2)o1 [Example 20, N-(trans-3-(5-((R)-1-((1-methylazetidin-3-yl)methoxy)ethyl)-1,3,4-oxadiazol-2-yl)cyclobutyl)-3-phenylisoxazole-5-carboxamide]",* (* indicates activity 100-200% of VX-809 (1 uM) with compound at 10 uM and VX-809 at 1 uM)
7,"CN1CC(c2nnc([C@H]3C[C@H](NC(=O)c4cc(-c5ccccc5)no4)C3)o2)C1 [Example 21, N-(trans-3-(5-(1-methylazetidin-3-yl)-1,3,4-oxadiazol-2-yl)cyclobutyl)-3-phenylisoxazole-5-carboxamide trifluoroacetate]",* (* indicates activity 100-200% of VX-809 (1 uM) with compound at 10 uM and VX-809 at 1 uM)
8,"O=C(NC1CC(c2nnc(C3COC3)o2)C1)c1cc(-c2ccccc2)no1 (stereo not drawn) [Example 22, N-trans-3-(5-(oxetan-3-yl)-1,3,4-oxadiazol-2-yl)cyclobutyl)-3-phenylisoxazole-5-carboxamide]",* (* indicates activity 100-200% of VX-809 (1 uM) with compound at 10 uM and VX-809 at 1 uM)
9,"O=C(N[C@H]1C[C@H](c2nnc(C3CS(=O)(=O)C3)o2)C1)c1cc(-c2ccccc2)no1 [Example 23, N-(trans-3-(5-(1,1-dioxidothietan-3-yl)-1,3,4-oxadiazol-2-yl)cyclobutyl)-3-phenylisoxazole-5-carboxamide]",* (* indicates activity 100-200% of VX-809 (1 uM) with compound at 10 uM and VX-809 at 1 uM)
10,"CN1CCC(N2CC(c3nnc(C4CC(NC(=O)c5cc(-c6ccccc6)no5)C4)o3)C2)CC1 (stereo not drawn) [Example 24, N-cis-(3-(5-(1-(1-methylpiperidin-4-yl)azetidin-3-yl)-1,3,4-oxadiazol-2-yl)cyclobutyl)-3-phenylisoxazole-5-carboxamide]",* (* indicates activity 100-200% of VX-809 (1 uM) with compound at 10 uM and VX-809 at 1 uM)
11,"O=C(N[C@H]1C[C@H](c2nnc(C3CN(CC4CCC4)C3)o2)C1)c1cc(-c2ccccc2)no1 [Example 27, N-(trans-3-(5-(1-(cyclobutylmethyl)azetidin-3-yl)-1,3,4-oxadiazol-2-yl)cyclobutyl)-3-phenylisoxazole-5-carboxamide]",* (* indicates activity 100-200% of VX-809 (1 uM) with compound at 10 uM and VX-809 at 1 uM)
12,"O=C(N[C@H]1C[C@@H](n2nncc2CO)C1)c1cc(-c2ccccc2)no1 [Example 28, N-(cis-3-(5-(hydroxymethyl)-1H-1,2,3-triazol-1-yl)cyclobutyl)-3-phenylisoxazole-5-carboxamide]",** (** indicates activity ≥200% of VX-809 (1 uM) with compound at 10 uM and VX-809 at 1 uM)
13,"O=C(N[C@H]1C[C@@H](n2cc(CO)nn2)C1)c1cc(-c2ccccc2)no1 [Example 29, N-(cis-3-(4-(hydroxymethyl)-1H-1,2,3-triazol-1-yl)cyclobutyl)-3-phenylisoxazole-5-carboxamide]",** (** indicates activity ≥200% of VX-809 (1 uM) with compound at 10 uM and VX-809 at 1 uM)
14,"C[C@@H](O)c1nnc([C@H]2C[C@H](NC(=O)c3cc(-c4ccc(F)cc4)no3)C2)o1 [Example 36, 3-(4-fluorophenyl)-N-(trans-3-(5-((R)-1-hydroxyethyl)-1,3,4-oxadiazol-2-yl)cyclobutyl)isoxazole-5-carboxamide]",* (* indicates activity 100-200% of VX-809 (1 uM) with compound at 10 uM and VX-809 at 1 uM)
15,"C[C@@H](O)c1nnc(CC2CC(NC(=O)c3cc(-c4ccccc4)no3)C2)o1 (stereo partly drawn) [Example 37, N-((1S,3s)-3-((5-((R)-1-hydroxyethyl)-1,3,4-oxadiazol-2-yl)methyl)cyclobutyl)-3-phenylisoxazole-5-carboxamide]",** (** indicates activity ≥200% of VX-809 (1 uM) with compound at 10 uM and VX-809 at 1 uM)
16,"C[C@@H](O)c1nnc(CC2CC(NC(=O)c3cc(-c4ccc(F)cc4)no3)C2)o1 (stereo partly drawn) [Example 40, 3-(4-Fluorophenyl)-N-[(1r,3r)-3-([5-[(1R)-1-hydroxyethyl]-1,3,4-oxadiazol-2-yl]methyl)cyclobutyl]-1,2-oxazole-5-carboxamide]",** (** indicates activity ≥200% of VX-809 (1 uM) with compound at 10 uM and VX-809 at 1 uM)
